What was measured:
[1] = target: T1, KRas^G12D (Homo sapiens, UniProt P01116, G12D); test: KRas Binding Assay (TR-FRET displacement), KRas G12D; details: TR-FRET tracer displacement
T1 construct: corresponding to amino acids 1-169, produced at Accelegan Inc; biotin (biotinylated); purchased Accelegan Inc
Procedure: (§1) This Example illustrates that exemplary compounds of the present invention bind to KRas and are capable of displacing a labeled tracer ligand occupying the KRas binding site. KRas^WT, KRas^G12A, KRas^G12C, KRas^G12D, KRas^G12R, KRas^G12S, KRas^G12V, KRas^G13D, or KRas^Q61H was used in the assay.
(§2) The ability of a compound to bind to KRas was measured using a TR-FRET displacement assay. Biotinylated KRas (corresponding to amino acids 1-169, produced at Accelegan Inc.) was incubated with custom made Cy5 labelled tracer, terbium streptavidin (Cisbio Inc.) and compound (1% DMSO final) in buffer (50 mM HEPES, pH 7.5, 5 mM MgCl2, 0.005% Tween-20 and 1 mM DTT). After a 60-minute incubation at room temperature, the reaction was measured using a BMG LABTECH CLARIO star Plus via TR-FRET. […] The POC values were fit to a 4-parameter IC50 equation and the IC50 value reported.

[2] = target: T2, KRas^G12V (Homo sapiens, UniProt P01116, G12V); test: KRas Binding Assay (TR-FRET displacement), KRas G12V; details: TR-FRET tracer displacement
T2 construct: corresponding to amino acids 1-169, produced at Accelegan Inc; biotin (biotinylated); purchased Accelegan Inc
Procedure: as §1, §2

[3] = target: T3, KRas^G12R (Homo sapiens, UniProt P01116, G12R); test: KRas Binding Assay (TR-FRET displacement), KRas G12R; details: TR-FRET tracer displacement
T3 construct: corresponding to amino acids 1-169, produced at Accelegan Inc; biotin (biotinylated); purchased Accelegan Inc
Procedure: as §1, §2

[4] = target: T4, KRas^WT (Homo sapiens, UniProt P01116); test: KRas Binding Assay (TR-FRET displacement), KRas WT; details: TR-FRET tracer displacement
T4 construct: corresponding to amino acids 1-169, produced at Accelegan Inc; biotin (biotinylated); purchased Accelegan Inc
Procedure: as §1, §2

[5] = target: T5, KRas^G13D (Homo sapiens, UniProt P01116, G13D); test: KRas Binding Assay (TR-FRET displacement), KRas G13D; details: TR-FRET tracer displacement
T5 construct: corresponding to amino acids 1-169, produced at Accelegan Inc; biotin (biotinylated); purchased Accelegan Inc
Procedure: as §1, §2

[6] = target: T6, KRas^Q61H (Homo sapiens, UniProt P01116, Q61H); test: KRas Binding Assay (TR-FRET displacement), KRas Q61H; details: TR-FRET tracer displacement
T6 construct: corresponding to amino acids 1-169, produced at Accelegan Inc; biotin (biotinylated); purchased Accelegan Inc
Procedure: as §1, §2

[7] = target: T7, KRas^G12A (Homo sapiens, UniProt P01116, G12A); test: KRas Binding Assay (TR-FRET displacement), KRas G12A; details: TR-FRET tracer displacement
T7 construct: corresponding to amino acids 1-169, produced at Accelegan Inc; biotin (biotinylated); purchased Accelegan Inc
Procedure: as §1, §2

[8] = target: T8, KRas^G12C (Homo sapiens, UniProt P01116, G12C); test: KRas Binding Assay (TR-FRET displacement), KRas G12C; details: TR-FRET tracer displacement
T8 construct: corresponding to amino acids 1-169, produced at Accelegan Inc; biotin (biotinylated); purchased Accelegan Inc
Procedure: as §1, §2

[9] = target: T9, KRas^G12S (Homo sapiens, UniProt P01116, G12S); test: KRas Binding Assay (TR-FRET displacement), KRas G12S; details: TR-FRET tracer displacement
T9 construct: corresponding to amino acids 1-169, produced at Accelegan Inc; biotin (biotinylated); purchased Accelegan Inc
Procedure: as §1, §2

[10] = system: KRas-mediated Phosphorylation of ERK in AsPC-1 cells; test: HTRF pERK assay, AsPC-1 cells; type: cell-based; details: Homo sapiens, ASPC1, 3 hrs compound incubation, read-out: Inhibition (HTRF IC50 nM) of KRas-mediated Phosphorylation of ERK, AsPC-1
Procedure: (§3) • Day 1: Seed 6,000 cells/well-25 μl/well in 384-well white solid bottom plate; RPM1_10% FBS.
(§4) • 1. To harvest cells from flask using 0.05% Trypsin/EDTA solution. Add 10 mL of media to stop trypsinizing. Pipette the cells into a conical bottom 50 mL centrifuge tube and centrifuge 5 min×1000 rpm. • 2. Re-suspend the cell pellet in media, take a cell count, and then adjust the cell density using fresh media. • 3. Seed 6,000 cells into cell culture plate with 50 μL media. The • 4. Incubate cell plate overnight in a 37° C., 5% CO2 incubator.
(§5) • 1. Use Tecan to complete the compound addition. Compounds start from 10 uM top, 3-fold dilution, and 10 doses. The final DMSO concentration is 0.8%. Dispensed 0.2 uM Trametinib as Min control. • 2. Incubate cell plate for 3 hrs in the incubator. Detection with Cisbio pERK HTRF Kit • 1. Dilute 1 volume of 4× lysis buffer with 3 volumes of deionized water. Then, add 100× the blocking reagent. Keep lysis buffer on the ice. • 2. At the end of the compound treatment, flick-off the media. • 3. Add 35 μL of lysis buffer per well using a Multidrop Combi. Then place on a plate agitator shaking at 300 rpm at 4° C. for 40 mins. • 4. Make up the HTRF antibody buffer. For each assay plate, mix 50 μL of d2-conjugate antibody with 950 μL of detection buffer. Similarly, mix 50 μL of Cryptate antibody with 950 μL of detection buffer. Then mix the two diluted antibodies together. • 5. Dispense 3.4 μL the antibody buffer to wells of an empty assay plate. Seal the plate and centrifuge plate 30 sec×1000 rpm. • 6. At the end of the 4° C. lysis, centrifuge the lysate plates 3 mins×1500 rpm. • 7. Use the Bravo to transfer 13.6 μL of lysate from cell culture plate to assay plate. Then incubate assay plate for 2 hrs at room temperature. • 8. At the end of incubation, read plate on the Envision after centrifuging plate 30 sec×1000 rpm.

[11] = system: KRas-mediated Phosphorylation of ERK in H727 cells; test: HTRF pERK assay, H727 cells; type: cell-based; details: Homo sapiens, NCI-H727, 3 hrs compound incubation, read-out: Inhibition (HTRF IC50 nM) of KRas-mediated Phosphorylation of ERK, H727
Procedure: as §3, §4, §5

T8 sequence (P01116 1-169 isoform P01116-2 G12C): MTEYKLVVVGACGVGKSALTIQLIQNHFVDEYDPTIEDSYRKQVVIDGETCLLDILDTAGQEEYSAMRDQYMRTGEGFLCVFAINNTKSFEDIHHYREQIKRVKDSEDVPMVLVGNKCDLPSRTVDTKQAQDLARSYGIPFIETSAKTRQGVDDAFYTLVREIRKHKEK
T4 sequence (P01116 1-169 isoform P01116-2): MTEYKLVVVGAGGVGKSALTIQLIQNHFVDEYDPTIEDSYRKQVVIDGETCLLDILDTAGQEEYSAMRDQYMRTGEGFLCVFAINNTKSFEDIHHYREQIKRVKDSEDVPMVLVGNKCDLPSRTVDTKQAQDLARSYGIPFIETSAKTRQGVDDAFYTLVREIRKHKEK
T7 sequence (P01116 1-169 isoform P01116-2 G12A): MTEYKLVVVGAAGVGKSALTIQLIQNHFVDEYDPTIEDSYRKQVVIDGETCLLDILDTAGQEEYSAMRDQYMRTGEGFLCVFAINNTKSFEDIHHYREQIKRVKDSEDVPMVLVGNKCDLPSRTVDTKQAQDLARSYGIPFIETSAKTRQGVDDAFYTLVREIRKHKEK
T9 sequence (P01116 1-169 isoform P01116-2 G12S): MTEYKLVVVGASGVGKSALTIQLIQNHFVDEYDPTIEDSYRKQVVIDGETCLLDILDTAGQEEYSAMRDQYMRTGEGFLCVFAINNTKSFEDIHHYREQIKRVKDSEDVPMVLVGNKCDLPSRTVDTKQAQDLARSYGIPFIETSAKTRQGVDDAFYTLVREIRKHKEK
T1 sequence (P01116 1-169 isoform P01116-2 G12D): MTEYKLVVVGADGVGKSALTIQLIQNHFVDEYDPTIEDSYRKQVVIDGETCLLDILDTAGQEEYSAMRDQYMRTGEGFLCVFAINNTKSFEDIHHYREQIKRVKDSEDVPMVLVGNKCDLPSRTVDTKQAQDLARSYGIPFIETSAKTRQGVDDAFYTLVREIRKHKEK
T5 sequence (P01116 1-169 isoform P01116-2 G13D): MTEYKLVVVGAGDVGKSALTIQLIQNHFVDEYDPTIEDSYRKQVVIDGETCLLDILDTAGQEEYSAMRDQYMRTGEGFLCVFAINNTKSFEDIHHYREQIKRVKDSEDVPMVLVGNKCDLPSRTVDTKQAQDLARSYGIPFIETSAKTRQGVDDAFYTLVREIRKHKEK
T2 sequence (P01116 1-169 isoform P01116-2 G12V): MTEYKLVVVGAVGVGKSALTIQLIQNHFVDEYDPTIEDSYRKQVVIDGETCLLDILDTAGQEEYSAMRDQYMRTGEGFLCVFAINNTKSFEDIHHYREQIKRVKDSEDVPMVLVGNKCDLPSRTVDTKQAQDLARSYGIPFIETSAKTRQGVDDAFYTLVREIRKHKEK
T6 sequence (P01116 1-169 isoform P01116-2 Q61H): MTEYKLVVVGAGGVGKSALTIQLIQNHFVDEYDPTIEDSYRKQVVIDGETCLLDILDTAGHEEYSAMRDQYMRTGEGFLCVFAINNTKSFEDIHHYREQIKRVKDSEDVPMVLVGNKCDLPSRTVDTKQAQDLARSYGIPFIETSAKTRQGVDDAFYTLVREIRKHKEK
T3 sequence (P01116 1-169 isoform P01116-2 G12R): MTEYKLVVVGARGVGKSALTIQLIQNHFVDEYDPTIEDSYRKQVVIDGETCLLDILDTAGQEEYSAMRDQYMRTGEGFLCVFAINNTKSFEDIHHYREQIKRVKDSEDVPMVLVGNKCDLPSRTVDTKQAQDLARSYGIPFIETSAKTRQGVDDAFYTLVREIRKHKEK

| IC50 [1] | IC50 [2] | IC50 [3] | IC50 [4] | IC50 [5] | IC50 [6] | IC50 [7] | IC50 [8] | IC50 [9] | IC50 [10] | IC50 [11] | SMILES |
| --- | --- | --- | --- | --- | --- | --- | --- | --- | --- | --- | --- |
| 18 nM | 6 nM | 4 nM | 14 nM | 37 nM | 36 nM | 49 nM | 54 nM | 41 nM | – | – | C[C@H](Oc1nc(-c2noc(C3(C)CCCc4sc(N)c(C#N)c43)n2)cc(N2CCCC3(C2)NC(=O)NC3=O)n1)[C@@H]1CCCN1C (stereo partly drawn) [Example 2, 2-amino-4-(3-(6-(2,4-dioxo-1,3,7-triazaspiro[4.5]decan-7-yl)-2-((S)-1-((S)-1-methylpyrrolidin-2-yl)ethoxy)pyrimidin-4-yl)-1,2,4-oxadiazol-5-yl)-4-methyl-4,5,6,7-tetrahydrobenzo[b]thiophene-3-carbonitrile] |
| 413 nM | 62 nM | 38 nM | 69 nM | 269 nM | 233 nM | 250 nM | 313 nM | 265 nM | – | – | C[C@H](Oc1nc(-c2noc(C3(C)CCCc4sc(N)c(C#N)c43)n2)cc(N2C[C@@H]3C[C@H](C2)[C@H](O)C3)n1)[C@@H]1CCCN1C (stereo partly drawn) [Example 5, 2-amino-4-(3-(6-((1R,5R,6R)-6-hydroxy-3-azabicyclo[3.2.1]octan-3-yl)-2-((S)-1-((S)-1-methylpyrrolidin-2-yl)ethoxy)pyrimidin-4-yl)-1,2,4-oxadiazol-5-yl)-4-methyl-4,5,6,7-tetrahydrobenzo[b]thiophene-3-carbonitrile] |
| 127 nM | 46 nM | 23 nM | 129 nM | 128 nM | 170 nM | 132 nM | 174 nM | 158 nM | 5840 nM | 4470 nM | C[C@H](Oc1nc(-c2cc(C3(C)CCCc4sc(N)c(C#N)c43)sn2)cc(N2CCC[C@@](C)(O)C2)n1)[C@@H]1CCCN1C (stereo partly drawn) [Example 7, 2-amino-4-(3-(6-((R)-3-hydroxy-3-methylpiperidin-1-yl)-2-((S)-1-((S)-1-methylpyrrolidin-2-yl)ethoxy)pyrimidin-4-yl)isothiazol-5-yl)-4-methyl-4,5,6,7-tetrahydrobenzo[b]thiophene-3-carbonitrile] |
| 623 nM | 163 nM | 156 nM | 417 nM | 584 nM | 533 nM | 551 nM | 457 nM | 596 nM | – | – | C[C@H](Oc1nc(-c2cc(C3(C)CCCc4sc(N)c(C#N)c43)sn2)cc(N2CCCn3nc(C(=O)N(C)C)cc3C2)n1)[C@@H]1CCCN1C (stereo partly drawn) [Example 12, 5-(6-(5-(2-amino-3-cyano-4-methyl-4,5,6,7-tetrahydrobenzo[b]thiophen-4-yl)isothiazol-3-yl)-2-((S)-1-((S)-1-methylpyrrolidin-2-yl)ethoxy)pyrimidin-4-yl)-N,N-dimethyl-5,6,7,8-tetrahydro-4H-pyrazolo[1,5-a][1,4]diazepine-2-carboxamide] |

The remaining lines, values behind:

| SMILES | IC50 [1] | IC50 [2] | IC50 [3] | IC50 [4] | IC50 [5] | IC50 [6] | IC50 [7] | IC50 [8] | IC50 [9] | IC50 [10] | IC50 [11] |
| --- | --- | --- | --- | --- | --- | --- | --- | --- | --- | --- | --- |
| C[C@H](Oc1nc(-c2noc(C3(C)CCCc4sc(N)c(C#N)c43)n2)cc(N2CCCC3(CNS(=O)(=O)N3)C2)n1)[C@@H]1CCCN1C (stereo partly drawn) [Example 4, 2-amino-4-(3-(6-(2,2-dioxido-2-thia-1,3,7-triazaspiro[4.5]decan-7-yl)-2-((S)-1-((S)-1-methylpyrrolidin-2-yl)ethoxy)pyrimidin-4-yl)-1,2,4-oxadiazol-5-yl)-4-methyl-4,5,6,7-tetrahydrobenzo[b]thiophene-3-carbonitrile] | 6 nM | 5 nM | 4 nM | 10 nM | 24 nM | 26 nM | 29 nM | 26 nM | 23 nM | – | – |
| C[C@H](Oc1nc(-c2noc(C3(C)CCCc4sc(N)c(C#N)c43)n2)cc(N2CCCn3nc(C(=O)N(C)C)cc3C2)n1)[C@@H]1CCCN1C (stereo partly drawn) [Example 6, 5-(6-(5-(2-amino-3-cyano-4-methyl-4,5,6,7-tetrahydrobenzo[b]thiophen-4-yl)-1,2,4-oxadiazol-3-yl)-2-((S)-1-((S)-1-methylpyrrolidin-2-yl)ethoxy)pyrimidin-4-yl)-N,N-dimethyl-5,6,7,8-tetrahydro-4H-pyrazolo[1,5-a][1,4]diazepine-2-carboxamide] | 1830 nM | 746 nM | 669 nM | 474 nM | 1080 nM | 1110 nM | 1590 nM | 1110 nM | 1520 nM | 7720 nM | > 10000 nM |
| C[C@H](Oc1nc(-c2cc(C3(C)CCCc4sc(N)c(C#N)c43)sn2)cc(N2C[C@@H]3C[C@H](C2)[C@H](O)C3)n1)[C@@H]1CCCN1C (stereo partly drawn) [Example 8, 2-amino-4-(3-(6-((1R,5R,6R)-6-hydroxy-3-azabicyclo[3.2.1]octan-3-yl)-2-((S)-1-((S)-1-methylpyrrolidin-2-yl)ethoxy)pyrimidin-4-yl)isothiazol-5-yl)-4-methyl-4,5,6,7-tetrahydrobenzo[b]thiophene-3-carbonitrile] | 505 nM | 96 nM | 59 nM | 160 nM | 167 nM | 224 nM | 204 nM | 275 nM | 296 nM | 7400 nM | 3380 nM |
| C[C@H](Oc1nc(-c2cc(C3(C)CCCc4sc(N)c(C#N)c43)sn2)cc(N2C[C@H]3CC[C@@H](C2)N3)n1)[C@@H]1CCCN1C (stereo partly drawn) [Example 9, 4-(3-(6-((1R,5S)-3,8-diazabicyclo[3.2.1]octan-3-yl)-2-((S)-1-((S)-1-methylpyrrolidin-2-yl)ethoxy)pyrimidin-4-yl)isothiazol-5-yl)-2-amino-4-methyl-4,5,6,7-tetrahydrobenzo[b]thiophene-3-carbonitrile] | 36 nM | 1040 nM | 1340 nM | 566 nM | 1320 nM | 2290 nM | 3080 nM | 3490 nM | 3420 nM | 3010 nM | ≥ 10000 nM |
| C[C@H](Oc1nc(-c2cc(C3(C)CCCc4sc(N)c(C#N)c43)sn2)cc(N2CCCC3(C2)NC(=O)NC3=O)n1)[C@@H]1CCCN1C (stereo partly drawn) [Example 11, 2-amino-4-(3-(6-(2,4-dioxo-1,3,7-triazaspiro[4.5]decan-7-yl)-2-((S)-1-((S)-1-methylpyrrolidin-2-yl)ethoxy)pyrimidin-4-yl)isothiazol-5-yl)-4-methyl-4,5,6,7-tetrahydrobenzo[b]thiophene-3-carbonitrile] | 93 nM | 76 nM | 34 nM | 326 nM | 190 nM | 263 nM | 240 nM | 262 nM | 188 nM | – | – |

Source: US20260015344A1, “PAN-KRAS INHIBITORS” (Mirati Therapeutics, Inc., priority 2022, published 2026)
